Source: patent US10054581B1, “Inhibitors of notch signaling pathway and use thereof in treatment of cancers” (Ecole Polytechnique Federale de Lausanne (EPFL), priority 2011, dated 2018)
Entries after “also recorded” stand apart in the source; their conditions may differ.

Legend:
[1] = target: T1, NICD, MAML1 and CSL/RBP-jk (Homo sapiens, UniProt P46531+Q06330+Q92585); assay: Microscopy of NICD-GFP, MAML1-FLAG and CSL/RBP-jk localization in HeLa cells; type: cell-based
T1 construct: expressed in transfected cells; host or cells: HeLa cells (NICD-GFP and MAML1-FLAG transfected; CSL/RBP-jk endogenous)
T1 sequence (P46531 1754-2555 limits assumed): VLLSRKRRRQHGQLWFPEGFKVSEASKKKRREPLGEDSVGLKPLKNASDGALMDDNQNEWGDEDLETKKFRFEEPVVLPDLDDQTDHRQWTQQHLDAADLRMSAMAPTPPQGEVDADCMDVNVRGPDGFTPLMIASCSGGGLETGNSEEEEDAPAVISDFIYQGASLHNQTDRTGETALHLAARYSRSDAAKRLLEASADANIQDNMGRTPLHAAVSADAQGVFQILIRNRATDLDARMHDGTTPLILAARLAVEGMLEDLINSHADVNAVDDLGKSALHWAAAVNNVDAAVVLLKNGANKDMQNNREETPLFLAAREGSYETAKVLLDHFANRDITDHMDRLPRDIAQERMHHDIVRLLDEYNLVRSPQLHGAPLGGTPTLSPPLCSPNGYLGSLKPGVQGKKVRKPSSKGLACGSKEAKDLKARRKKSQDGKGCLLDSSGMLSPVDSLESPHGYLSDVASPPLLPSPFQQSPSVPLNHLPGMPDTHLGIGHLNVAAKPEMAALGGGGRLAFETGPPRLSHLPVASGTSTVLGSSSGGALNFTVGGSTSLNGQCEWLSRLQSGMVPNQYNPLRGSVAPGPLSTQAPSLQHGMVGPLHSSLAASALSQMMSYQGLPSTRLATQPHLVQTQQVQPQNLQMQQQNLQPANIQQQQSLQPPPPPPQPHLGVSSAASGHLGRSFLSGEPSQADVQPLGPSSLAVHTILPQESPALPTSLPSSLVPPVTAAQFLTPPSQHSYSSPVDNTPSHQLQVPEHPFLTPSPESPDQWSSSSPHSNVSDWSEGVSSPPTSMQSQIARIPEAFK
T1 sequence (Q92585 whole entry): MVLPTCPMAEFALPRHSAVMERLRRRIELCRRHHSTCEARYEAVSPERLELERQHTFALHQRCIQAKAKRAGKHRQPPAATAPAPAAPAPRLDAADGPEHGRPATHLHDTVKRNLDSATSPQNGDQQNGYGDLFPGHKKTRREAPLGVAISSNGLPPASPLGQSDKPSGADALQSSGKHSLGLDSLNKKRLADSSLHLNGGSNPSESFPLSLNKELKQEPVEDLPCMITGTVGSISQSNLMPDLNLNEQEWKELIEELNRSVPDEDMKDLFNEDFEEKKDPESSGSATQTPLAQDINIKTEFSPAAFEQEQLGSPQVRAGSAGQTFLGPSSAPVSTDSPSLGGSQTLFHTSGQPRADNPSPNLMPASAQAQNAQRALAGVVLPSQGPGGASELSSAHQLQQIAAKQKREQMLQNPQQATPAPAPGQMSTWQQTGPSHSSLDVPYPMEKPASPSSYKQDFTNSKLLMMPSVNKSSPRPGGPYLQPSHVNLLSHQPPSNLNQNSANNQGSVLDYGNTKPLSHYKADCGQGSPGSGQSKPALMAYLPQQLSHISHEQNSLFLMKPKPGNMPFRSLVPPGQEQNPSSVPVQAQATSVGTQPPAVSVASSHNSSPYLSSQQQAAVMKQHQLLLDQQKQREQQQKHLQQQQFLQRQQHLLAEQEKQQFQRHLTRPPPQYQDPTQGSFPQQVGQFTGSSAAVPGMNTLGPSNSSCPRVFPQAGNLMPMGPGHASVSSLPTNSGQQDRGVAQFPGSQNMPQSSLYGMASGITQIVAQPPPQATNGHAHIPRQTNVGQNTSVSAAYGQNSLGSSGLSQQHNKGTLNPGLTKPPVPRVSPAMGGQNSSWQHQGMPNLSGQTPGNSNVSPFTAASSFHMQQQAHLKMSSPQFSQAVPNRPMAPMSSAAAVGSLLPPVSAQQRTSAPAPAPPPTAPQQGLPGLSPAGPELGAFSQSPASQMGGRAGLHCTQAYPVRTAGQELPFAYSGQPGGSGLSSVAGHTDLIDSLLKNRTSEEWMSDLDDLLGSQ
T1 sequence (Q06330 whole entry): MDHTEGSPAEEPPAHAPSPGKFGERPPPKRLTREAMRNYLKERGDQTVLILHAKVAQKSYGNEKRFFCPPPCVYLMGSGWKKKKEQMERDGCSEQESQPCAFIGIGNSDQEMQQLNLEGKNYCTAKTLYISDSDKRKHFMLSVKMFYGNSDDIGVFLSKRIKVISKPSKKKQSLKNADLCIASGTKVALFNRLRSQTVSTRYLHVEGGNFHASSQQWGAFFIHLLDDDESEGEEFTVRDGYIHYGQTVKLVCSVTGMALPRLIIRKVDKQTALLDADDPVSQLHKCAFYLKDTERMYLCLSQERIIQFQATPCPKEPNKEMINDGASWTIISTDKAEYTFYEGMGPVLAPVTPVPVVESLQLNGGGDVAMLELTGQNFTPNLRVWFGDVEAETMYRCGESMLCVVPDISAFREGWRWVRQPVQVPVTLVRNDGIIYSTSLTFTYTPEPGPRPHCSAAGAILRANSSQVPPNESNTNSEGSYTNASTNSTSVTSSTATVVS
Procedure: To perform immunofluorescence staining, HeLa cells or C2C12 cells were grown on cover slips. Cells were washed with 1× ice-cold PBS, fixed with 4% PFA for 5 minutes at room temperature and permeabilized using 0.3% Triton X-100. Subsequently permeabilized cells were blocked for 20 minutes with 1% BSA for 20 minutes at room temperature. Cells were incubated with appropriate primary antibodies for […] at room temperature. Alexa Fluor-488 conjugated secondary antibodies were used to detect primary antibodies. Cells were counterstained with DAPI and mounted in fluorescent mounting media. Fluorescent images were viewed and captured using Zeiss Axioplan microscope at Bioimaging and optics core facility at EPFL.
This raises several possibilities about the mechanism of action of 6-(4-Tert-Butylphenoxy)Pyridin-3-Amine (I3). For example, 6-(4-Tert-Butylphenoxy)Pyridin-3-Amine (I3) treatment could impair nuclear localization of the NICD. A second possible mechanism of inhibition could be targeting of one or more individual components of the transcriptional activation complex in the nucleus. […] In parallel, the 6-(4-Tert-Butylphenoxy)Pyridin-3-Amine (I3) mediated pathway inhibition was determined by Notch driven luciferase measurement (data not shown). […]

HPB ALL leukemic cells = assay: HPB ALL xenotransplantation in NOD/SCID γc−/− mice; type: in vivo, human; settings: 25 mg/kg daily from around day 15, imaged day 27
Procedure: FIGS. 8A-8B show 6-(4-Tert-Butylphenoxy)Pyridin-3-Amine (I3) treatment increases latency of leukemia development in mice. […] On day 15, leukemic cells were established in the bone marrow. Mice were treated with oil or 6-(4-Tert-Butylphenoxy)Pyridin-3-Amine (I3) for every day. Mice were imaged on day 27 using Caliper IVIS (Xenogen) live imaging system. Red and blue colour indicates the intensity of luciferase signal and correlates with the number of leukemic cells. […] NOD/SCID γc^−/− mice were transplanted with 5×10^5 RPMI 8402 (luciferase expressing) cells. Leukemia development was followed using Caliper IVIS (Xenogen) live imaging system. On day […], a daily treatment was started using oil (n=3) or 6-(4-Tert-Butylphenoxy)Pyridin-3-Amine (I3) (n=4). Animals were treated for 27 days (end point of the experiment).
The human leukemic cell lines RPMI 8402 and HPB ALL were transduced with a lentivirus containing luciferase gene constitutively expressed downstream of a CMV promoter. […] Mice were monitored for tumor development using Caliper IVIS (Xenogen) live imaging system. […]
This allowed Applicants to visualize and monitor the leukemia progression in the mice using the Caliper IVIS (Xenogen) live imaging detection system. […] Mice were monitored for leukemia development by detecting luciferase expressing leukemic cells. […]

With `CC(C)(C)c1ccc(Oc2ccc(N)cn2)cc1` [I3, 6-(4-Tert-Butylphenoxy)Pyridin-3-Amine] the “co-localization of NICD, MAML1 and CSL/RBP-jk in sub-nuclear compartments” value ([1]; 800 ng NICD-GFP + 1 μg MAML1-FLAG, I3 10 μM, 24 hours) was “did not perturb the translocation and co-localization of NICD-GFP and MAML1 into sub-nuclear compartment; also recorded: did not perturb their distribution in the nucleus; also recorded: does not impede co-localization of NICD, MAML1 and CSL/RBP-jk in the sub-nuclear compartments”, the “nuclear localization of NICD-GFP” value ([1]; HeLa cells transfected with NICD-GFP) was “not perturbed; also recorded: did not alter its nuclear localization” and the “leukemia progression (luciferase live imaging)” value (HPB ALL leukemic cells) was “did not progress at the same rate as in the oil treated group”.
